Reference: PMC4920673, “Nitroimidazole carboxamides as antiparasitic agents targeting Giardia lamblia, Entamoeba histolytica and Trichomonas vaginalis” (European Journal of Medicinal Chemistry, 2016)
In brackets after ≈: the same amount, converted by molar mass. Read-outs that look alike come from different tables or passages of the source.

Experiments:
HepG2 cells = experiment: Resazurin cytotoxicity assay, HepG2; type: cell-based, Human; conditions: for S.I (CC50/EC50), second value of a split cell: HepG2 CC50 / G. lamblia WB EC50
Method: (§1) Human HEK293 and HepG2 cells were seeded at 3000 and 5000 cells per well in 384-well plates, respectively. Cells were cultured in Dulbecco's modified Eagle's medium with 10% FBS for 24 h at 37 °C, 5% CO2. A dilution series of compounds was added, with the highest concentration of 100 μM. […] After 24 h incubation with the compounds, 5 μM resazurin was added into each well and incubated at 37 °C for 2 h. As a negative control, 1% Triton X-100 was added into the culture media to lyse all of the cells. The fluorescence intensity was read using Polarstar Omega with excitation/emission 560/590 nm. Data were analysed with GraphPad Prism 6 software (La Jolla, California USA) to calculate CC50 values.

G. lamblia WB (MtzS) = experiment: ATP-bioluminescence growth/survival EC50 assay, G. lamblia WB; conditions: for S.I (CC50/EC50): average cytotoxicity against HEK293 and HepG2 / G. lamblia WB activity
Method: (§2) Compounds were screened for antiparasitic activity using an ATP-bioluminescence based assay for cell growth and survival, [24]. […] Viable cell numbers were determined in triplicate using the CellTiter-Glo Luminescent Cell Viability Assay.

HEK293 cells = experiment: Resazurin cytotoxicity assay, HEK293; type: cell-based, Human; conditions: for Selectivity index (CC50/EC50): HEK293 CC50 / G. lamblia WB EC50
Method: as §1

[1] = tested on: C. difficile 630 (ATCC BAA-1382); experiment: Broth microdilution MIC assay, C. difficile 630; type: cell-based, Clostridium difficile; conditions: for MIC: Clostridioides difficile, ATCCBAA1382
Method: Clostridium difficile strains (630, ATCC BAA-1382 and NAP1/027, ATCC BAA-1803) were maintained as previously described. The minimum inhibition concentration (MIC) was determined according to the CLSI Methods with modifications in broth and inoculum for C. difficile, [25], [26]. Briefly, compounds and control antibiotics were serially diluted two-fold in 96-well plates (Non-binding surface, Corning). […] C. difficile bacteria from BHIS(TA) agar plates were cultured anaerobically in BHIS at 37 °C overnight. […] An antibiotic standard, a positive growth control (no compound) and a sterility control (no bacteria) were included on each 96 well plate. Plates were covered and incubated at 37 °C for 24 h. MICs for each strain were determined as the lowest concentration without visible growth. […] Median MICs are reported with a range given when the median MIC was between two tested concentrations.

[2] = tested on: C. difficile NAP1/027 (ATCC BAA-1803); experiment: Broth microdilution MIC assay, C. difficile NAP1/027; type: cell-based, Clostridium difficile; conditions: strain NAP1/027; for MIC: Clostridioides difficile, ATCCBAA1803
Method: Clostridium difficile strains (630, ATCC BAA-1382 and NAP1/027, ATCC BAA-1803) were maintained as previously described. The minimum inhibition concentration (MIC) was determined according to the CLSI Methods with modifications in broth and inoculum for C. difficile, [25], [26]. Briefly, compounds and control antibiotics were serially diluted two-fold in 96-well plates (Non-binding surface, Corning). The plates were placed in a Coy anaerobic chamber (5% H2, 10% CO2, 85% N2) overnight to reduce the medium. C. difficile bacteria from BHIS(TA) agar plates were cultured anaerobically in BHIS at 37 °C overnight. […]. Compound concentration ranged from 64 to 0.03 μg/mL. An antibiotic standard, a positive growth control (no compound) and a sterility control (no bacteria) were included on each 96 well plate. Plates were covered and incubated at 37 °C for 24 h. MICs for each strain were determined as the lowest concentration without visible growth. Variance between replicates was typically within one 2-fold dilution. Median MICs are reported with a range given when the median MIC was between two tested concentrations.

E. histolytica HM1:IMSS = experiment: ATP-bioluminescence growth/survival EC50 assay, E. histolytica; type: cell-based, Entamoeba histolytica
Method: as §2

G. lamblia 713M3 (MtzR) = experiment: ATP-bioluminescence growth/survival EC50 assay, G. lamblia 713M3; type: cell-based, Giardia lamblia
Method: as §2

T. vaginalis F1623 = experiment: ATP-bioluminescence growth/survival EC50 assay, T. vaginalis; type: cell-based, Trichomonas vaginalis
Method: as §2

[3] = Resazurin cytotoxicity assay, HepG2; type: cell-based, Human; conditions: human, 24 h
Method: as §1

[4] = Plasma protein binding by ultrafiltration; type: in vitro ADME; conditions: human, pooled human plasma (100%), 5 μM, 100% human plasma, 37 °C, 30 min, ultrafiltration; for fraction unbound at 30 min, 5 μM: read-out: Plasma protein binding (% bound); for fraction unbound at 0.5 h, 5 µM: read-out: Plasma protein binding (% bound) (converted)
Method: Plasma Protein Binding (PPB) was performed using an Ultrafiltration method, [28]. […] Samples were incubated at […] for 30 min, then centrifuged at 14,000 × g for 8 min, with the clear supernatant transferred to a vial for LC/MS/MS analysis. […] The fraction of unbound compound was calculated by determining the concentration of the filtered sample and the concentration of unfiltered sample. […] LC/MS/MS parameters are detailed in the supplementary information (Supplementary Table 1).

[5] = Resazurin cytotoxicity assay, HEK293; type: cell-based, Human; conditions: human, 24 h
Method: as §1

[6] = read-out: EC50 G. lamblia WB, MtzS strain WB, minimum n = 3
[7] = strain 630, MtzS, median of n = 4
[8] = MtzS, minimum n = 3, read-out: EC50 E. histolytica HM1:IMSS
[9] = MtzR strain 713M3, minimum n = 3, read-out: EC50 G. lamblia 713M3
[10] = MtzS, minimum n = 3, read-out: EC50 T. vaginalis F1623
[11] = HepG2 cells, highest concentration 100 μM, n = 3, read-out: CC50 Hep G2
[12] = Giardia duodenalis, read-out: EC50 G. lamblia WB, MtzS strain WB, minimum n = 3
[13] = Giardia duodenalis, read-out: pEC50 ± SE G. lamblia WB, MtzS strain WB (converted)
[14] = Giardia duodenalis, read-out: EC50 G. lamblia 713M3, MtzR strain 713M3, minimum n = 3
[15] = Giardia duodenalis, read-out: pEC50 ± SE G. lamblia 713M3, MtzR strain 713M3 (converted)
[16] = HEK293 cells, highest concentration 100 μM, n = 3, read-out: CC50 HEK 293
[17] = strain 630, MtzS, median of n = 4, read-out: MIC C. difficile 630
[18] = Entamoeba histolytica, read-out: EC50 E. histolytica HM1:IMSS
[19] = Entamoeba histolytica, read-out: pEC50 ± SE E. histolytica HM1:IMSS (converted)
[20] = Trichomonas vaginalis, read-out: EC50 T. vaginalis F1623, MtzS, minimum n = 3
[21] = Trichomonas vaginalis, read-out: pEC50 ± SE T. vaginalis F1623, MtzS (converted)

Compound | CC50 (HepG2 cells) [µM] | pEC50 ± SE G. lamblia WB (G. lamblia WB (MtzS); MtzS strain WB) | S.I (CC50/EC50) (G. lamblia WB (MtzS)) | EC50 (G. lamblia WB (MtzS); [6]) [µM] | CC50 (HEK293 cells) [µM] | MIC C. difficile 630 [1, 7] [µg/mL] | MIC C. difficile NAP1/027 [2] [µg/mL] | pEC50 ± SE E. histolytica HM1:IMSS (E. histolytica HM1:IMSS; MtzS) | EC50 (E. histolytica HM1:IMSS; [8]) [µM] | CC50 at 24 h [3, 11] [µM] | EC50 (G. lamblia WB (MtzS); [12]) [µM] | EC50 (G. lamblia WB (MtzS); [13]) [µM] | EC50 (G. lamblia 713M3 (MtzR); [14]) [µM] | EC50 (G. lamblia 713M3 (MtzR); [15]) [µM] | CC50 at 24 h [5, 16] [µM] | MIC [1, 17] [µg/mL] | MIC [2] [µg/mL] | EC50 (E. histolytica HM1:IMSS; [18]) [µM] | EC50 (E. histolytica HM1:IMSS; [19]) [µM] | EC50 (T. vaginalis F1623; [20]) [µM] | also measured
1-(cyclohexylmethyl)-4-nitro-1H-imidazole-2-carboxamide [Compound 13g] | > 100 | 5.30 ± 0.06 | >20 | 5 | > 100 | >64 | >64 | < 4.3 | > 50 | – | – | – | – | – | – | – | – | – | – | – | –
1-(cyclopropylmethyl)-4-nitro-1H-imidazole-2-carboxamide [Compound 13f] | > 100 | < 4.3 | – | > 50 | > 100 | >64 | >64 | < 4.3 | > 50 | – | – | – | – | – | – | – | – | – | – | – | –
Cn1c([N+](=O)[O-])cnc1C(=O)NCc1ccc(OC(F)(F)F)cc1 [Compound 8b, 1-methyl-5-nitro-N-(4-(trifluoromethoxy)benzyl)-1H-imidazole-2-carboxamide] | > 100 | 5.52 ± 0.03 | >33 | 3 | > 100 | 32 (≈ 93 µM) | – | 4.85 ± 0.02 | 14 | – | – | – | – | – | – | – | – | – | – | – | pEC50 ± SE G. lamblia 713M3 (G. lamblia 713M3 (MtzR); MtzR strain 713M3): 5.06 ± 0.29; EC50 (G. lamblia 713M3 (MtzR); [9]): 8.8 µM; pEC50 ± SE T. vaginalis F1623 (T. vaginalis F1623; MtzS): 4.88 ± 0.01; EC50 (T. vaginalis F1623; [10]): 13 µM
Cn1c([N+](=O)[O-])cnc1C(=O)NCc1cccc(OC(F)(F)F)c1 [Compound 8c, 1-methyl-5-nitro-N-(3-(trifluoromethoxy)benzyl)-1H-imidazole-2-carboxamide] | > 100 | 5.51 ± 0.02 | >32 | 3.1 | > 100 | 32 to 64 | 64 (≈ 186 µM) | 4.77 ± 0.02 | 17 | – | – | – | – | – | – | – | – | – | – | – | pEC50 ± SE G. lamblia 713M3 (G. lamblia 713M3 (MtzR); MtzR strain 713M3): 5.84 ± 0.69; EC50 (G. lamblia 713M3 (MtzR); [9]): 1.5 µM; pEC50 ± SE T. vaginalis F1623 (T. vaginalis F1623; MtzS): 5.09 ± 0.09; EC50 (T. vaginalis F1623; [10]): 8.1 µM
Cn1c([N+](=O)[O-])cnc1C(=O)NC1CCCCC1 [Compound 8k, N-cyclohexyl-1-methyl-5-nitro-1H-imidazole-2-carboxamide] | – | – | >20 | – | – | – | – | – | – | > 100 | 4.9 | 4.9 | 5.1 | 5.01 | > 100 | > 64 | > 64 | 3.7 | 3.72 | 11 | fraction unbound at 30 min, 5 μM [4]: ≤ 0.06; fraction unbound at 0.5 h, 5 µM [4]: 0.06; EC50 (T. vaginalis F1623; [21]): 10.7 µM
O=C(NCc1ccc(OC(F)(F)F)cc1)c1ncc([N+](=O)[O-])[nH]1 [Compound 12b, 5-nitro-N-(4-(trifluoromethoxy)benzyl)-1H-imidazole-2-carboxamide] | – | – | – | – | – | – | – | – | – | 93 | 0.2 | 0.245 | 2.5 | 2.51 | – | 16 (≈ 48.5 µM) | 8 to 16 (≈ 24.2 to 48.5 µM) | 4.5 | 4.47 | 2.2 | S.I (CC50/EC50), second value of a split cell (HepG2 cells): 465; CC50 at 24 h ([3]; HepG2 cells, read-out: pCC50 ± SE Hep G2 (converted)): 93.3 µM; Selectivity index (CC50/EC50) (HEK293 cells): > 500; CC50 at 24 h ([5]; highest concentration 100 μM, n = 3, read-out: CC50 HEK 293): > 100 µM; EC50 (T. vaginalis F1623; [21]): 2.24 µM
O=C(NC1CCCCC1)c1ncc([N+](=O)[O-])[nH]1 [Compound 12k, N-cyclohexyl-5-nitro-1H-imidazole-2-carboxamide] | – | – | >167 | – | – | – | – | – | – | > 100 | – | 0.603 | 5.5 | 5.5 | > 100 | 8 (≈ 33.6 µM) | 8 (≈ 33.6 µM) | 2.8 | 2.82 | 2.4 | fraction unbound at 30 min, 5 μM [4]: ≤ 0.06; fraction unbound at 0.5 h, 5 µM [4]: 0.01; MIC ([1]; 630 and NAP1/027 strains together or strain not given, read-out: MIC C. difficile): 4 to 16 µg/mL (≈ 16.8 to 67.2 µM); EC50 (T. vaginalis F1623; [21]): 2.45 µM
O=C(NO)c1nc([N+](=O)[O-])cn1Cc1ccc(OC(F)(F)F)cc1 [Compound 14d, N-hydroxy-4-nitro-1-(4-(trifluoromethoxy)benzyl)-1H-imidazole-2-carboxamide] | – | – | – | – | – | – | – | – | – | – | 5.1 | 5.13 | – | – | 36 | 16 (≈ 46.2 µM) | 16 (≈ 46.2 µM) | 10 | 10 | – | S.I (CC50/EC50), second value of a split cell (HepG2 cells): > 20; CC50 at 24 h ([3]; highest concentration 100 μM, n = 3, read-out: CC50 Hep G2): > 100 µM; Selectivity index (CC50/EC50) (HEK293 cells): 7; CC50 at 24 h ([5]; HEK293 cells, read-out: pCC50 ± SE HEK293 (converted)): 36.3 µM
